pIC50: −log10 of the molar value.

This passage reports IC50 results from patent US10442808B2, “Pyrazolo pyrimidine derivatives and their use as MALT1 inhbitors” (NOVARTIS AG, priority 2014, dated 2019).

In the assay the test system is IL2 promoter. Kind of assay: Human IL2 promoter reporter gene assay (RGA) in Jurkat cells. Type of assay: cell-based. The conditions noted are these: […], heading: IL2 reporter gene assay IC50, anti-CD28 mAb + PMA stimulation 5.5 h. How it is done:
Human IL2 Promoter Reporter Gene Assay (RGA) in Jurkat Cells
The transfected Jurkat clone K22 290_H23 was propagated in RPMI 1640 supplemented with 10% heat inactivated fetal calf serum, 50 μM 2-mercaptoethanol and 1 mg/ml Geneticin. The cell concentration should not exceed 1×10e6/ml during culturing. The cells should not exceed passage 30. Prior to the assay the cells were washed and prepared to the concentration of 2×10e6 cells/ml.
Compound dilutions were made as 2×-concentrated solutions then diluted ½ by addition to cells. Two hundred and fifty μl of compound dilution and 250 μl of cells were mixed together in wells of a 96-deep well plate. Cells/compounds premix were incubated 30 min at 37° C. and 5% CO2 directly in the deep well plate.
After pre-incubation of cells with compounds, cells were stimulated with anti-CD28 mAb (clone 15E8) at 3 μg/ml+PMA at 1 μg/ml. Both co-stimulants were diluted in culture medium at a 10×-concentrated solution. 10 μl of co-stimulants were pipetted into the white 96-well plates and 100 μl of cell/compound mix was immediately added in duplicates. The cells were stimulated for 5.5 h at 37° C. and 5% CO2.
After cell stimulation, 50 μl of BriteLitePlus reagent (Perkin Elmer) was added to each well and the bioluminescence was measured with a Wallac EnVision reader (Perkin Elmer).
(Reporter assays use an easily measured gene product as a stand-in for the process of interest.)

In the case of `C[C@H](OCCN(C)C)c1c(NC(=O)Nc2cnc(-n3nccn3)c(Cl)c2)cnc2cc(Cl)nn12` [Example 82, (S)-1-(5-chloro-6-(2H-1,2,3-triazol-2-yl)pyridin-3-yl)-3-(2-chloro-7-(1-(2-(dimethylamino)ethoxy)ethyl)pyrazolo[1,5-a]pyrimidin-6-yl)urea], the pIC50 was 7.80.

Regarding `CN1CCOCC1Cc1c(NC(=O)Nc2cnc(-n3nccn3)c(Cl)c2)cnc2cc(Cl)nn12` (stereo not shown) [Example 83, 1-(5-chloro-6-(2H-1,2,3-triazol-2-yl)pyridin-3-yl)-3-(2-chloro-7-((4-methylmorpholin-3-yl)methyl)pyrazolo[1,5-a]pyrimidin-6-yl)urea], the negative-log IC50 (pIC50) is 7.89.

Turning to `CN1CCCC[C@H]1c1c(NC(=O)Nc2cnc(-n3nccn3)c(Cl)c2)cnc2cc(Cl)nn12` [Example 84, (S)-1-(5-chloro-6-(2H-1,2,3-triazol-2-yl)pyridin-3-yl)-3-(2-chloro-7-(1-methylpiperidin-2-yl)pyrazolo[1,5-a]pyrimidin-6-yl)urea], the negative-log IC50 (pIC50) was 7.31.

For `CO[C@H](C)CO[C@@H](C)c1c(NC(=O)Nc2cnc(-n3nccn3)c(Cl)c2)cnc2cc(Cl)nn12` [Example 85, 1-(5-chloro-6-(2H-1,2,3-triazol-2-yl)pyridin-3-yl)-3-(2-chloro-7-((S)-1-((R)-2 methoxypropoxy)ethyl)pyrazolo[1,5-a]pyrimidin-6-yl)urea], the negative-log IC50 (pIC50) is 7.17.

For `COc1ncc(NC(=O)Nc2cnc3cc(Cl)nn3c2C2CCC(C)O2)cc1Cl` (stereo not shown) [Example 87, 1-(5-chloro-6-methoxypyridin-3-yl)-3-(2-chloro-7-(5-methyltetrahydrofuran-2-yl)pyrazolo[1,5-a]pyrimidin-6-yl)urea], the pIC50 was 7.39.

On to `CN(C)C1(c2c(NC(=O)Nc3cnc(-n4nccn4)c(Cl)c3)cnc3cc(Cl)nn23)CC1` [Example 88, 1-(5-chloro-6-(2H-1,2,3-triazol-2-yl)pyridin-3-yl)-3-(2-chloro-7-(1-(dimethylamino)cyclopropyl)pyrazolo[1,5-a]pyrimidin-6-yl)urea], for which the pIC50 is 7.08.

As for `CO[C@@H](C)c1c(NC(=O)Nc2cnc(-n3nccn3)c(C(F)F)c2)cnc2cc(Cl)nn12` [Example 89, (S)-1-(2-chloro-7-(1-methoxyethyl)pyrazolo [1,5-a]pyrimidin-6-yl)-3-(5-(difluoromethyl)-6-(2H-1,2,3-triazol-2-yl)pyridin-3-yl)urea], the pIC50 was 7.60.

On to `COC(c1c(NC(=O)Nc2ccnc(C(F)(F)F)c2)cnc2cc(Cl)nn12)C1CCOCC1` (stereo not shown) [Example 90, 1-(2-chloro-7-(methoxy(tetrahydro-2H-pyran-4-yl)methyl)pyrazolo[1,5-a]pyrimidin-6-yl)-3-(2-(trifluoromethyl)pyridin-4-yl)urea], for which the pIC50 was 7.85.

On to `COCC1(c2c(NC(=O)Nc3cnc(-n4nccn4)c(Cl)c3)cnc3cc(Cl)nn23)CCCO1` (stereo not shown) [Example 91, 1-(5-chloro-6-(2H-1,2,3-triazol-2-yl)pyridin-3-yl)-3-(2-chloro-7-(2-(methoxymethyl)tetrahydrofuran-2-yl)pyrazolo[1,5-a]pyrimidin-6-yl)urea], for which the negative-log IC50 (pIC50) is 7.30.

For `CO[C@@H](C)c1c(NC(=O)Nc2ccnc(C(F)F)c2)cnc2cc(Cl)nn12` [Example 92, (S)-1-(2-chloro-7-(1-methoxyethyl)pyrazolo [1,5-a]pyrimidin-6-yl)-3-(2-(difluoromethyl)pyridin-4-yl)urea], the pIC50 is 7.62.

Regarding `CO[C@@H](C)c1c(NC(=O)Nc2cnc(OC(F)F)c(Cl)c2)cnc2cc(Cl)nn12` [Example 93, (S)-1-(5-chloro-6-(difluoromethoxy)pyridin-3-yl)-3-(2-chloro-7-(1-methoxyethyl)pyrazolo[1,5-a]pyrimidin-6-yl)urea], the pIC50 is 7.23.

With `CO[C@@H](C)c1c(NC(=O)Nc2cnc(-n3nccn3)c(C(F)(F)F)c2)cnc2cc(F)nn12` [Example 94, (S)-1-(6-(2H-1,2,3-triazol-2-yl)-5-(trifluoromethyl)pyridin-3-yl)-3-(2-fluoro-7-(1-methoxyethyl)pyrazolo[1,5-a]pyrimidin-6-yl)urea], the pIC50 is 6.32.

With `CO[C@@H](C)c1c(NC(=O)Nc2cnc(-n3nccn3)c(Cl)c2)cnc2cc(F)nn12` [Example 95, (S)-1-(5-chloro-6-(2H-1,2,3-triazol-2-yl)pyridin-3-yl)-3-(2-fluoro-7-(1-methoxyethyl)pyrazolo [1,5-a]pyrimidin-6-yl)urea], the pIC50 is 7.22.

As for `CO[C@@H](C)c1c(NC(=O)Nc2cnc(-n3nccn3)c(Cl)c2)cnc2cc(C#N)nn12` [Example 96, (S)-1-(5-chloro-6-(2H-1,2,3-triazol-2-yl)pyridin-3-yl)-3-(2-cyano-7-(1-methoxyethyl)pyrazolo[1,5-a]pyrimidin-6-yl)urea], the negative logarithm of the IC50 (pIC50) was 7.28.

As for `COCCO[C@@H](C)c1c(NC(=O)Nc2cnc(OC(F)F)c(Cl)c2)cnc2cc(Cl)nn12` [Example 97, (S)-1-(5-chloro-6-(difluoromethoxy)pyridin-3-yl)-3-(2-chloro-7-(1-(2-methoxyethoxy)ethyl)pyrazolo[1,5-a]pyrimidin-6-yl)urea], the negative logarithm of the IC50 (pIC50) was 6.66.

`CO[C@H](c1c(NC(=O)Nc2cnc(-n3nccn3)c(Cl)c2)cnc2cc(Cl)nn12)[C@@H](C)OC` [Example 98, 1-(5-chloro-6-(2H-1,2,3-triazol-2-yl)pyridin-3-yl)-3-(2-chloro-7-((1R,2R)-1,2-dimethoxypropyl)pyrazolo[1,5-a]pyrimidin-6-yl)urea]: the pIC50 was 6.94.

As to `CO[C@@H](C)c1c(NC(=O)Nc2cc(Cl)cnc2OCCN(C)C)cnc2cc(Cl)nn12` [Example 99, (S)-1-(5-chloro-2-(2-(dimethylamino)ethoxy)pyridin-3-yl)-3-(2-chloro-7-(1-methoxyethyl)pyrazolo[1,5-a]pyrimidin-6-yl)urea], the pIC50 is 7.27.

Take `Cc1cc2ncc(NC(=O)Nc3cnc(-n4nccn4)c(Cl)c3)c(C3(C)CCCO3)n2n1` (stereo not shown) [Example 104, 1-(5-chloro-6-(2H-1,2,3-triazol-2-yl)pyridin-3-yl)-3-(2-methyl-7-(2-methyltetrahydrofuran-2-yl)pyrazolo[1,5-a]pyrimidin-6-yl)urea]: the negative logarithm of the IC50 (pIC50) was 6.87.

Take `CO[C@@H](C)c1c(NC(=O)Nc2ccnc(C#N)c2)cnc2cc(Cl)nn12` [Example 105, (S)-1-(2-chloro-7-(1-methoxyelhyl)pyrazolo[1,5-a]pyrimidin-6-yl)-3-(2-cyanopyridin-4-yl)urea]: the pIC50 is 6.95.

With `COCC(OC)c1c(NC(=O)Nc2cnc(-n3nccn3)c(C(F)(F)F)c2)cnc2cc(Cl)nn12` (stereo not shown) [Example 108, 1-(6-(2H-1,2,3-triazol-2-yl)-5-(trifluoromethyl)pyridin-3-yl)-3-(2-chloro-7-(1,2-dimethoxyethyl)pyrazolo[1,5-a]pyrimidin-6-yl)urea], the pIC50 is 7.77.

For `COCC(OC)c1c(NC(=O)Nc2ccnc(C(F)(F)F)c2)cnc2cc(Cl)nn12` (stereo not shown) [Example 109, 1-(2-chloro-7-(1,2-dimethoxyethyl)pyrazolo[1,5-a]pyrimidin-6-yl)-3-(2-(trifluoromethyl)pyridin-4-yl)urea], the pIC50 was 6.70.

For the compound `COC[C@@H](C)c1c(NC(=O)Nc2cnc(-n3nccn3)c(C(F)(F)F)c2)cnc2cc(Cl)nn12` [Example 110, (S)-1-(6-(2H-1,2,3-triazol-2-yl)-5-(trifluoromethyl)pyridin-3-yl)-3-(2-chloro-7-(1-methoxypropan-2-yl)pyrazolo[1,5-a]pyrimidin-6-yl)urea], the negative-log IC50 (pIC50) was 7.39.

With `COC[C@H](C)c1c(NC(=O)Nc2cnc(-n3nccn3)c(C(F)(F)F)c2)cnc2cc(Cl)nn12` [Example 111, (R)-1-(6-(2H-1,2,3-triazol-2-yl)-5-(trifluoromethyl)pyridin-3-yl)-3-(2-chloro-7-(1-methoxypropan-2-yl)pyrazolo[1,5-a]pyrimidin-6-yl)urea], the negative-log IC50 (pIC50) is 6.86.

For the compound `CC(C)c1c(NC(=O)Nc2cc(C(F)(F)F)ncc2-n2nccn2)cnc2cc(Cl)nn12` [Example 112, 1-(5-(2H-1,2,3-triazol-2-yl)-2-(trifluoromethyl)pyridin-4-yl)-3-(2-chloro-7-isopropylpyrazolo[1,5-a]pyrimidin-6-yl)urea], the pIC50 was 7.24.

As to `C[C@@H](O)c1c(NC(=O)Nc2cnc(-n3nccn3)c(C(F)(F)F)c2)cnc2cc(Cl)nn12` [Example 113, (R)-1-(6-(2H-1,2,3-triazol-2-yl)-5-(trifluoromethyl)pyridin-3-yl)-3-(2-chloro-7-(1-hydroxyethyl)pyrazolo[1,5a]pyrimidin-6-yl)urea], the pIC50 is 7.11.

For orientation: pIC50 means the negative decadic logarithm of the IC50, by convention in mol/L.
